Data: patent publication US5109111A, “CRF antagonists” (The Salk Institute for Biological Studies, priority 1990, dated 1992)
Square brackets hold non-standard residues; d marks the D form. Peptide text beside a SMILES is read from it. dNle = CCCC[C@@H](N)C(=O)O; Nle = CCCC[C@H](N)C(=O)O; Nva = CCC[C@H](N)C(=O)O

Assays:
[1] = test system: secretion of ACTH stimulated by oCRF in cultured rat pituitary cells; experiment: Blocking of oCRF-stimulated ACTH and β-endorphin secretion by cultured rat pituitary cells; format: cell-based; details: for inhibition of the secretion of ACTH and β-END-LI: result in words; for potency compared to AHC(9-41) in blocking by 50% the secretion of ACTH: ACTH secretion stimulated by a 1 nM dose of oCRF, AHC(9-41) = reference
Procedure: The effectiveness of synthetic CRF antagonists to block the secretion of ACTH and β-endorphin by cultured rat pituitary cells is measured using the procedure as generally set forth in Vale et al., Endocrinology, 91, 562 (1972).

[2] = test system: secretion of ACTH and β-endorphin-like (β-END-LI) immunoactivities; experiment: hCRF stimulation of ACTH and β-END-LI secretion in vivo in rats
Procedure: Plasma levels of ACTH and β-END-LI are elevated for at least 5-20 minutes following the intraveneous administration of hCRF to nembutal-anesthesized male rats and to quiescent male or female rats with indwelling intravenous cannulae. […] These antagonists should counteract such effects.

[3] = test system: GRF-stimulated secretion of GH; experiment: Specificity: GRF-stimulated secretion of GH; format: cell-based
Source text: (§1) Compared to AHC(9-41), a potent CRF antagonist disclosed in U.S. Pat. No. 4,605,642, this peptide was more than 17 times as potent.

[4] = test system: TRF-stimulated secretion of TSH and prolactin; experiment: Specificity: TRF-stimulated secretion of TSH and prolactin; format: cell-based
Source text: as §1

[5] = test system: GnRH-stimulated secretion of LH and FSH; experiment: Specificity: GnRH-stimulated secretion of LH and FSH; format: cell-based
Source text: as §1

[6] = test system: ACTH release; experiment: In vivo duration of lowering ACTH release after iv injection, against the Standard; parameters: species or system rats

Compound: CCCC[C@H](NC(=O)[C@H](CC(C)C)NC(=O)[C@H](CC(C)C)NC(=O)[C@H](CCCNC(=N)N)NC(=O)[C@H](CC(N)=O)NC(=O)[C@H](CC(C)C)NC(=O)[C@H](C)NC(=O)[C@H](C)NC(=O)[C@H](CCC(N)=O)NC(=O)[C@H](CCC(=O)O)NC(=O)[C@H](C)NC(=O)[C@H](C)NC(=O)[C@H](CCC(N)=O)NC(=O)[C@H](CCC(=O)O)NC(=O)[C@H](C)NC(=O)[C@H](CCCCN)NC(=O)[C@H](C)NC(=O)[C@H](CC(C)C)NC(=O)[C@H](CCC(=O)O)NC(=O)[C@H](CC(C)C)NC(=O)[C@H](CCCC)NC(=O)[C@H](CCC(=O)O)NC(=O)[C@H](CCCNC(=N)N)NC(=O)[C@H](CC(C)C)NC(=O)[C@H](CC(C)C)NC(=O)[C@H](Cc1c[nH]cn1)NC(=O)[C@@H](N)Cc1ccccc1)C(=O)N[C@@H](CCC(=O)O)C(=O)N[C@@H](CCC(=O)O)C(=O)N[C@@H](C)C(N)=O [XXII, [Nle^18,38, Leu^21, Ala^27]-AHC (12-41)] (H-FHLLRE[Nle]LELAKAEQAAEQAALNRLL[Nle]EEA-NH2)
- inhibition of the secretion of ACTH and β-END-LI [1]: inhibits the secretion of ACTH and β-END-LI

Compound: CCCC[C@H](NC(=O)[C@H](CC(C)C)NC(=O)[C@H](CC(C)C)NC(=O)[C@H](CCCNC(=N)N)NC(=O)[C@H](CC(N)=O)NC(=O)[C@H](CC(C)C)NC(=O)[C@H](C)NC(=O)[C@H](C)NC(=O)[C@H](CCC(N)=O)NC(=O)[C@H](CCC(=O)O)NC(=O)[C@H](C)NC(=O)[C@H](CCC(=O)O)NC(=O)[C@H](CCCCN)NC(=O)[C@H](CCC(=O)O)NC(=O)[C@H](C)NC(=O)[C@H](CCCCN)NC(=O)[C@H](CCC(=O)O)NC(=O)[C@H](CCSC)NC(=O)[C@H](CCC(=O)O)NC(=O)[C@H](CC(C)C)NC(=O)[C@H](CCSC)NC(=O)[C@H](CCC(=O)O)NC(=O)[C@H](CCCNC(=N)N)NC(=O)[C@H](CC(C)C)NC(=O)[C@H](CC(C)C)NC(=O)[C@H](CCC(=O)O)NC(=O)[C@@H](N)CC(C)C)C(=O)N[C@@H](CCC(=O)O)C(=O)N[C@@H](CCC(=O)O)C(=O)N[C@@H](C)C(N)=O [XXIII, [Leu^12, Glu^13,22, Lys^26, Nle^38]-AHC (12-41)] (H-LELLREMLEMEKAEKEAEQAALNRLL[Nle]EEA-NH2)
- inhibition of the secretion of ACTH and β-END-LI [1]: inhibits the secretion of ACTH and β-END-LI

Compound: CCCC[C@H](NC(=O)[C@H](CC(C)C)NC(=O)[C@H](CC(C)C)NC(=O)[C@H](CCCNC(=N)N)NC(=O)[C@H](CC(N)=O)NC(=O)[C@H](C)NC(=O)[C@H](C)NC(=O)[C@H](C)NC(=O)[C@H](CCC(N)=O)NC(=O)[C@H](CCC(=O)O)NC(=O)[C@H](C)NC(=O)[C@H](CCC(=O)O)NC(=O)[C@H](CCC(N)=O)NC(=O)[C@H](CCC(=O)O)NC(=O)[C@H](C)NC(=O)[C@H](CCCCN)NC(=O)[C@H](C)NC(=O)[C@H](CCSC)NC(=O)[C@H](CCC(=O)O)NC(=O)[C@H](CC(C)C)NC(=O)[C@H](CCSC)NC(=O)[C@H](CCC(=O)O)NC(=O)[C@H](CCCNC(=N)N)NC(=O)[C@H](CC(C)C)NC(=O)[C@H](CC(C)C)NC(=O)[C@H](CCC(=O)O)NC(=O)[C@H](N)CC(C)C)C(=O)N[C@@H](CCC(=O)O)C(=O)N[C@@H](CCC(=O)O)C(=O)N[C@@H](C)C(N)=O [XXV, [D-Leu^12, Glu^13, Ala^33, Nle^38]-AHC (12-41)] (H-[dL]ELLREMLEMAKAEQEAEQAAANRLL[Nle]EEA-NH2)
- inhibition of the secretion of ACTH and β-END-LI [1]: inhibits the secretion of ACTH and β-END-LI

Compound: CCCC[C@@H](N)C(=O)N[C@@H](Cc1c[nH]cn1)C(=O)N[C@@H](CC(C)C)C(=O)N[C@@H](CC(C)C)C(=O)N[C@@H](CCCNC(=N)N)C(=O)N[C@@H](CCC(=O)O)C(=O)N[C@@H](CCCC)C(=O)N[C@@H](CC(N)=O)C(=O)N[C@@H](CCC(=O)O)C(=O)N[C@@H](CCCC)C(=O)N[C@@H](CC(=O)O)C(=O)N[C@@H](CCCCN)C(=O)N[C@@H](C)C(=O)N[C@@H](CCC(=O)O)C(=O)N[C@@H](CCC(N)=O)C(=O)N[C@@H](Cc1ccccc1)C(=O)N[C@@H](C)C(=O)N[C@@H](CCC(=O)O)C(=O)N[C@@H](CCC(N)=O)C(=O)N[C@@H](C)C(=O)N[C@@H](C)C(=O)N[C@@H](CC(C)C)C(=O)N[C@@H](CC(N)=O)C(=O)N[C@@H](CCCNC(=N)N)C(=O)N[C@@H](CC(C)C)C(=O)N[C@@H](CC(C)C)C(=O)N[C@@H](CCCC)C(=O)N[C@@H](CCC(=O)O)C(=O)N[C@@H](CCC(=O)O)C(=O)N[C@@H](C)C(N)=O [XXVII, [D-Nle^12, Nle^18,21,38, Asn^19, Asp^22, Phe^27]-AHC(12-41)] (H-[dNle]HLLRE[Nle]NE[Nle]DKAEQFAEQAALNRLL[Nle]EEA-NH2)
- inhibition of the secretion of ACTH and β-END-LI [1]: inhibits the secretion of ACTH and β-END-LI

Compound: CCCC[C@H](NC(=O)[C@H](CCCCN)NC(=O)[C@H](C)NC(=O)[C@H](CCSC)NC(=O)[C@H](CCC(=O)O)NC(=O)[C@H](C)NC(=O)[C@@H](NC(=O)[C@H](CCC(=O)O)NC(=O)[C@H](CCCNC(=N)N)NC(=O)[C@H](CC(C)C)NC(=O)[C@H](CC(C)C)NC(=O)[C@H](Cc1c[nH]cn1)NC(=O)[C@H](N)Cc1ccc(O)cc1)C(C)C)C(=O)N[C@@H](CCC(=O)O)C(=O)N[C@@H](CCC(N)=O)C(=O)N[C@@H](CCC)C(=O)N[C@@H](C)C(=O)N[C@@H](CCC(N)=O)C(=O)N[C@@H](CCC(N)=O)C(=O)N[C@@H](C)C(=O)N[C@@H](Cc1c[nH]cn1)C(=O)N[C@@H](CO)C(=O)N[C@@H](CC(N)=O)C(=O)N[C@@H](CCCNC(=N)N)C(=O)N[C@@H](CCCCN)C(=O)N[C@@H](CC(C)C)C(=O)N[C@@H](CCCC)C(=O)N[C@@H](CCC(=O)O)C(=O)N[C@@H](CCCC)C(=O)N[C@H](C(N)=O)[C@@H](C)CC [XXX, [D-Tyr^12, Ala^19, Lys^23, Nle^24,38,40 Nva^27,]-hCRF(12-41)] (H-[dY]HLLREVAEMAK[Nle]EQ[Nva]AQQAHSNRKL[Nle]E[Nle]I-NH2)
- inhibition of the secretion of ACTH and β-END-LI [1]: inhibits the secretion of ACTH and β-END-LI

Compound: CC[C@H](C)[C@H](NC(=O)[C@@H](NC(=O)[C@H](CCC(=O)O)NC(=O)[C@H](CCSC)NC(=O)[C@H](CC(C)C)NC(=O)[C@H](CCCCN)NC(=O)[C@H](CCCNC(=N)N)NC(=O)[C@H](CC(N)=O)NC(=O)[C@H](CO)NC(=O)[C@H](Cc1c[nH]cn1)NC(=O)[C@H](C)NC(=O)[C@H](CCC(N)=O)NC(=O)[C@H](CCC(N)=O)NC(=O)[C@H](C)NC(=O)[C@H](CC(C)C)NC(=O)[C@H](CCC(N)=O)NC(=O)[C@H](CCC(=O)O)NC(=O)[C@H](C)NC(=O)[C@H](CCCNC(=N)N)NC(=O)[C@H](C)NC(=O)[C@H](CCSC)NC(=O)[C@H](CCC(=O)O)NC(=O)[C@H](CC(C)C)NC(=O)[C@@H](NC(=O)[C@H](CCC(=O)O)NC(=O)[C@H](CCCNC(=N)N)NC(=O)[C@H](CC(C)C)NC(=O)[C@H](CC(C)C)NC(=O)[C@H](Cc1c[nH]cn1)NC(=O)[C@H](Cc1ccccc1)NC(=O)[C@@H](NC(=O)[C@H](CC(C)C)NC(=O)[C@H](CC(=O)O)NC(=O)[C@H](CC(C)C)NC(=O)[C@H](CO)NC(=O)[C@@H](NC(=O)[C@@H]1CCCN1C(=O)[C@@H]1CCCN1C(=O)[C@H](CCC(=O)O)NC(=O)[C@H](CCC(=O)O)NC(=O)[C@@H](N)CO)[C@@H](C)CC)[C@@H](C)O)C(C)C)[C@@H](C)CC)C(N)=O [hCRF]
- time plasma levels of ACTH and β-END-LI are elevated ([2]; intravenous hCRF, nembutal-anesthetized male rats and quiescent cannulated male or female rats): 5 to 20 min
- stimulation of secretion of ACTH and β-END-LI in vivo ([2]; several rat preparations): powerful stimulator

Compound: AHC(9-41)
- effect on GRF-stimulated secretion of GH [3]: no effect
- effect on TRF-stimulated secretion of TSH and prolactin [4]: no effect
- effect on GnRH-stimulated secretion of LH and FSH [5]: no effect
- duration of bioactivity (lowering ACTH release) ([6]; dosages of 0.5 mg, two runs): about 40 minutes
- duration of effectiveness in lowering ACTH release ([6]; dose of 0.1 mg): no measurable effect

Compound: [4ClD-Phe^12, Nle^18,21,38 ]-AHC(9-41) [XX]
- inhibition of the secretion of ACTH and β-END-LI [1]: inhibits the secretion of ACTH and β-END-LI

Compound: [4FD-Phe^12, CML^14,15,19,27,33,37, CMA^22,32,41, Nle^38 ]-AHC(12-41) [XIX]
- inhibition of the secretion of ACTH and β-END-LI [1]: inhibits the secretion of ACTH and β-END-LI

Compound: [CML^14,19,27,36, Nle^38 ]-AHC(12-41) [XXVI]
- inhibition of the secretion of ACTH and β-END-LI [1]: inhibits the secretion of ACTH and β-END-LI

Compound: [D-2Nal^12, Nle^21,38 ]-hCRF(12-41) [X]
- potency compared to AHC(9-41) in blocking by 50% the secretion of ACTH [1]: about 9 times as potent as AHC(9-41)
- inhibition of the secretion of ACTH and β-END-LI [1]: inhibits the secretion of ACTH and β-END-LI

Compound: [D-Val^12, Nle^21,38, Ile^24,27, Nva^41 ]-hCRF(11-41) [XXVIII]
- inhibition of the secretion of ACTH and β-END-LI [1]: inhibits the secretion of ACTH and β-END-LI

Compound: [Nle^21,38, Arg^37 ]-hCRF(12-41) [IX]
- potency compared to AHC(9-41) in blocking by 50% the secretion of ACTH [1]: more than 6 times as potent as AHC(9-41)
- inhibition of the secretion of ACTH and β-END-LI [1]: inhibits the secretion of ACTH and β-END-LI
